What was measured:
Test in all cases: ITC
Conditions in all cases: 100 mM KCl, 20 mM MgCl2; 50 mM K-HEPES pH 7.5, 30 °C; apparent
[1] = system: env1 (RNA, riboswitch) GGGUGUAAUCUCCAAAAUAUGGUUGGGGAGCCUCCACCAGUGAACCGUAAAAUCGCUGUCACCACCC
[2] = system: env23 (RNA, riboswitch) GGGUGUAAUUCGGGGGAUUGGCCCCGGAGUAUCCACGACCGGACCAUAAUCCGGUGCAUCCACCC
[3] = system: env30 (RNA, riboswitch) GGACGUAGCCUGGGGGAUUGGCCCCAGGGCAUCCACGAGCUGGCCGCAACUAGCUGAGACCGUCC
[4] = system: env6 (RNA, riboswitch) GGACGUAAUCCUCCGAACAGGCGGGGGAGCAUCCACCGCCGGGCCUUAACCCGGUGUAACCGUCC
[5] = system: env1 Δ(U75,C76) (RNA, riboswitch) GGGUGUAAUCUCCAAAAUAUGGUUGGGGAGCCUCCACCAGUGAACCGUAAAAUCGCUGACCACCC
[6] = system: env1 C48A (RNA, riboswitch) GGGUGUAAUCUCCAAAAUAUGGUUGGGGAGCAUCCACCAGUGAACCGUAAAAUCGCUGUCACCACCC
[7] = system: xpt U51C + U75C76 (RNA, riboswitch) GGACAUAUAAUCGCGUGGAUAUGGCACGCAAGUUUCCACCGGGCACCGUAAAUGUCCGUCACUAUGUCC
[8] = system: env1 U75A (RNA, riboswitch) GGGUGUAAUCUCCAAAAUAUGGUUGGGGAGCCUCCACCAGUGAACCGUAAAAUCGCUGACACCACCC
[9] = system: env1 A77U (RNA, riboswitch) GGGUGUAAUCUCCAAAAUAUGGUUGGGGAGCCUCCACCAGUGAACCGUAAAAUCGCUGUCUCCACCC
[10] = system: xpt + U75C76 (RNA, riboswitch) GGACAUAUAAUCGCGUGGAUAUGGCACGCAAGUUUCUACCGGGCACCGUAAAUGUCCGUCACUAUGUCC
[11] = system: env1 G21A,C79U (RNA, riboswitch) GGGUAUAAUCUCCAAAAUAUGGUUGGGGAGCCUCCACCAGUGAACCGUAAAAUCGCUGUCACUACCC
[12] = system: env1 C47,48U (RNA, riboswitch) GGGUGUAAUCUCCAAAAUAUGGUUGGGGAGUUUCCACCAGUGAACCGUAAAAUCGCUGUCACCACCC
[13] = system: env1 C78A (RNA, riboswitch) GGGUGUAAUCUCCAAAAUAUGGUUGGGGAGCCUCCACCAGUGAACCGUAAAAUCGCUGUCAACACCC
[14] = system: env1 C51U (RNA, riboswitch) GGGUGUAAUCUCCAAAAUAUGGUUGGGGAGCCUCUACCAGUGAACCGUAAAAUCGCUGUCACCACCC

## Nc1nc2c(ncn2CCC(CO)CO)c(=O)[nH]1
[1]
  KD: 2000 ± 100 nM

## Nc1nc2c(ncn2COCCO)c(=O)[nH]1
[1]
  KD: 560 ± 10 nM

## Nc1nc2c(ncn2[C@@H]2O[C@H](CO)[C@@H](O)[C@H]2O)c(=O)[nH]1
[1]
  KD,rG: 89 ± 10 nM
[2]
  KD,rG: 51 000 ± 4000 nM
[3]
  KD,rG: 36 000 ± 1000 nM

## Nc1nc2c(ncn2[C@H]2C[C@H](O)[C@@H](CO)O2)c(=O)[nH]1
[4]
  KD,2′-dG: 88 ± 3 nM
[5]
  KD,dG: 240 ± 50 nM
[6]
  KD,dG: 7.1 ± 1.4 nM
[1]
  KD,2′-dG: 34 ± 1 nM
[7]
  KD,app: 1600 ± 100 nM
[8]
  KD,dG: 1600 ± 300 nM
[9]
  KD,dG: 250 ± 10 nM
[2]
  KD,2′-dG: 290 ± 50 nM
[10]
  KD,app: 8100 ± 600 nM
[11]
  KD,dG: 570 ± 30 nM
[12]
  KD,dG: 110 ± 10 nM
[13]
  KD,dG: 41 000 ± 9000 nM
[3]
  KD,2′-dG: 2400 ± 900 nM
[14]
  KD,dG: 620 ± 180 nM

## O=c1[nH]cnc2nc[nH]c12
[10]
  KD,app: 21000 ± 2000 nM

Reference: paper PMC6847200 (2019)
